Test results from patent publication US4468385A, “Poly-cation salts of 4-O-poly-hexaose-thio-alkylene sulfate derivatives and method of use” (American Cyanamid Company, priority 1983, dated 1984).
Several values for one entry are separate records, joined by “and”; a condition that tells them apart may be missing. Identical values can stand only once. Counter-ions that a name gives are not always drawn. Values belong to the molecule of their own block, whether it stands above or below them.

Assays:
[1] = test system: total hemolytic complement activity; conditions: in vitro and in vivo, judged by reduction in total hemolytic complement activity; cited from earlier work
activated human C1 = activated human C1 (Homo sapiens, UniProt P09871); assay: Test Code 026 (C1 inhibitor): protection of fluid phase human C2 from activated human C1 in the presence of C4; type: biochemical; conditions: serial twofold dilution assay; higher well number indicates higher activity
complement system = conditions: literature report; cited from earlier work
[2] = test system: hereditary angioneurotic edema; conditions: literature report; cited from earlier work

Molecule: pentosan- polysulfoester
- anticomplementary activity on human serum [1]: anticomplementary activity

- In vitro Activity Cl 026 Wells (activated human C1): 6 Wells and 9 Wells
Molecule: O=S(=O)(O)OC[C@H]1O[C@H](O[C@H]2[C@H](O)[C@@H](OS(=O)(=O)O)[C@H](SCC(S)CO)O[C@@H]2COS(=O)(=O)O)[C@H](OS(=O)(=O)O)[C@@H](O)[C@@H]1O (stereo partly drawn) [3-Hydroxy-2-mercaptopropyl 4-O-α-D-glucopyranosyl-1-thio-β-D-glucopyranoside-tetrakis-(H-sulfate) tetrasodium salt]

Molecule: O=S(=O)([O-])OC[C@H]1O[C@@H](SCC(O)C(O)CS)[C@H](OS(=O)(=O)[O-])[C@@H](OS(=O)(=O)[O-])[C@@H]1O[C@H]1O[C@H](COS(=O)(=O)[O-])[C@@H](OS(=O)(=O)[O-])[C@H](OS(=O)(=O)[O-])[C@H]1OS(=O)(=O)[O-].[Na+].[Na+].[Na+].[Na+].[Na+].[Na+].[Na+] (stereo partly drawn) [2,3-Dihydroxy-4-mercaptobutyl 2,3,6-tri-O-sulfo-4-O-(2,3,4,6-tetra-O-sulfo-α-D-glucopyranosyl)-1-thio-β-D-glucopyranoside heptasodium salt]
- In vitro Activity Cl 026 Wells (activated human C1): 12 Wells

- In vitro Activity Cl 026 Wells (activated human C1): 1 Wells
Molecule: N[C@@H](CS[C@@H]1O[C@H](COS(=O)(=O)O)[C@@H](O[C@H]2O[C@H](COS(=O)(=O)O)[C@@H](OS(=O)(=O)O)[C@H](OS(=O)(=O)O)[C@H]2OS(=O)(=O)O)[C@H](OS(=O)(=O)O)[C@H]1OS(=O)(=O)O)C(=O)O [4-[2,3,6-Tri-O-sulfo-4-O-(2,3,4,6-tetra-O-sulfo-α-D-glucopyranosyl)-β-D-glucopyranosyl]-L-cysteine heptasodium salt]

Molecule: Nc1ccc2cc(S(=O)(=O)[O-])cc(O)c2c1N=Nc1ccc(NC(=O)Nc2ccc(N=Nc3c(N)ccc4cc(S(=O)(=O)[O-])cc(O)c34)c(S(=O)(=O)[O-])c2)cc1S(=O)(=O)[O-].[Na+].[Na+].[Na+].[Na+] [chlorazol fast pink, 3,3'-ureylenebis[6-(2-amino-8-hydroxy-6-sulfo-1-naphthylazo)benzenesulfonic acid], tetrasodium salt]
- anticomplementary effect (complement system): anticomplementary effect

Molecule: NC[C@H]1CC[C@H](C(=O)O)CC1 [tranexamic acid]
- treatment of hereditary angioneurotic edema [2]: used with success

Molecule: heparin
- anticomplementary effect (complement system): anticomplementary effect

- In vitro Activity Cl 026 Wells (activated human C1): 6 Wells
Molecule: CC(=O)NC(CCS[C@@H]1O[C@H](COS(=O)(=O)O)[C@@H](O[C@H]2O[C@H](COS(=O)(=O)O)[C@@H](OS(=O)(=O)O)[C@H](OS(=O)(=O)O)[C@H]2OS(=O)(=O)O)[C@H](OS(=O)(=O)O)[C@H]1OS(=O)(=O)O)C(=O)O (stereo partly drawn) [4-[2,3,6-Tri-O-sulfo-4-O-(2,3,4,6-tetra-O-sulfo-α-D-glucopyranosyl)-β-D-glucopyranosyl]-2-acetamido-4-mercaptobutyric acid heptasodium salt]

Molecule: NCCCCCC(=O)O [epsilon-aminocaproic acid]
- treatment of hereditary angioneurotic edema [2]: used with success
